Measurements: article PMC10954709, “Structure of an open KATP channel reveals tandem PIP2 binding sites mediating the Kir6.2 and SUR1 regulatory interface” (Nature Communications, 2024)

Experiments:
SUR1/Kir6.2^Q52R channel = target: T1, SUR1/Kir6.2^Q52R channel (UniProt P70673+Q09427, Q52R); test: ATP inhibition, inside-out patch-clamp recording, COSm6 cells; type: biochemical, rat Kir6.2, hamster SUR1; settings: for % current: mean, relative to maximum current in K-INT
T1 construct: expressed in transfected cells; host or cells: COSm6
Method: (§1) For electrophysiology experiments, COSm6 cells were co-transfected with various combination of WT or mutant SUR1 and Kir6.2 cDNAs (SUR1 in pECE and Kir6.2 in pCDNA3) along with the cDNA for the Green Fluorescent Protein (to facilitate identification of transfected cells) using FuGENE® 6 (Promega). Mutant SUR1 and Kir6.2 were constructed using QuikChange (mutagenesis primers are shown in Supplementary Table 2). Cells were plated onto glass coverslips 24 h after transfection and recordings made in the following two days. All experiments were performed at room temperature. Micropipettes were pulled from non-heparinized Kimble glass (Fisher Scientific) on a horizontal puller (Sutter Instrument). Electrode resistance was typically 1-2 MΩ when filled with K-INT solution containing 140 mM KCl, 10 mM K-HEPES, 1 mM K-EGTA, 1 mM EDTA, pH 7.3. ATP was added as the potassium salt. Inside-out patches of cells bathed in K-INT were voltage-clamped with an Axopatch 1D amplifier (Axon Instruments). ATP or porcine brain PIP2 (Avanti Polar Lipids; prepared in K-INT and bath sonicated in ice water for 30 min before use) were added to K-INT as specified in the figure legend. All currents were measured at a membrane potential of −50 mV (pipette voltage = +50 mV). Data were analyzed using pCLAMP10 software (Axon Instrument). Off-line analysis was performed using Clampfit and GraphPad. Data were presented as mean ± standard error of the mean (S.E.M). ATP inhibition dose-response curves were obtained by fitting data to the Hill equation (Irel = 1/(1 + ([ATP]/IC50)^H)), where Irel is the current relative to the maximum currents in K-INT solution (expressed as % current in Fig. 7c and Supplementary Fig. 7a), IC50 is the ATP concentration that causes half-maximal inhibition, and H is the Hill coefficient. Note H was allowed to vary for the curves shown in Fig. 7c and Supplementary Fig. 7a.

[1] = target: T2, SUR1/Kir6.2^Q52R/R176A channel (UniProt P70673+Q09427, Q52R/R176A); test: as above; type: biochemical, rat Kir6.2, hamster SUR1; settings: for % current: mean, relative to maximum current in K-INT
T2 construct: expressed in transfected cells; host or cells: COSm6
Method: as §1

[2] = target: T3, SUR1/Kir6.2^R176A channel (UniProt P70673+Q09427, R176A); test: as above; type: biochemical, rat Kir6.2, hamster SUR1; settings: for % current: mean, relative to maximum current in K-INT
T3 construct: expressed in transfected cells; host or cells: COSm6
Method: as §1

[3] = target: T4, SUR1^K134A/Kir6.2 channel (UniProt P70673+Q09427, K134A); test: as above; type: biochemical, rat Kir6.2, hamster SUR1; settings: for % current: mean, relative to maximum current in K-INT
T4 construct: expressed in transfected cells; host or cells: COSm6
Method: as §1

[4] = target: T5, SUR1^K134A/Kir6.2^Q52R channel (UniProt P70673+Q09427, K134A/Q52R); test: as above; type: biochemical, rat Kir6.2, hamster SUR1; settings: for % current: mean, relative to maximum current in K-INT
T5 construct: expressed in transfected cells; host or cells: COSm6
Method: as §1

[5] = target: T6, SUR1^K134A/Kir6.2^Q52R/R176A channel (UniProt P70673+Q09427, K134A/Q52R/R176A); test: as above; type: biochemical, rat Kir6.2, hamster SUR1; settings: for % current: relative to maximum current in K-INT
T6 construct: expressed in transfected cells; host or cells: COSm6
Method: as §1

SUR1^W51C/Kir6.2 channel = target: T7, SUR1^W51C/Kir6.2 channel (UniProt P70673+Q09427, W51C); test: as above; type: biochemical, rat Kir6.2, hamster SUR1; settings: for % current: mean, relative to maximum current in K-INT
T7 construct: expressed in transfected cells; host or cells: COSm6
Method: as §1

[6] = target: T8, SUR1^W51C/Kir6.2^Q52R channel (UniProt P70673+Q09427, Q52R/W51C); test: as above; type: biochemical, rat Kir6.2, hamster SUR1; settings: for % current: mean, relative to maximum current in K-INT
T8 construct: expressed in transfected cells; host or cells: COSm6
Method: as §1

[7] = target: T9, WT (SUR1/Kir6.2) KATP channels (UniProt P70673+Q09427); test: as above; type: biochemical, rat Kir6.2, hamster SUR1; settings: for % current: mean, relative to maximum current in K-INT
T9 construct: expressed in transfected cells; host or cells: COSm6
Method: as §1

Kir6.2^Q52R KATP channel = system: Kir6.2^Q52R KATP channel; set-up: method as in PMID 16123353, PMID 15583126; settings: Kir6.2^Q52R relative to WT; cited from earlier work
[8] = system: KATP channel with engineered Kir6.2-Q52/SUR1-E203 charged amino acid pair; set-up: method as in PMID 22802363; settings: engineered charged amino acid pair enforcing Kir6.2-Q52 and SUR1-E203 interaction; cited from earlier work
[9] = mean ± SEM, Hill fit, −50 mV, K-INT

T8 sequence (P70673 whole entry Q52R): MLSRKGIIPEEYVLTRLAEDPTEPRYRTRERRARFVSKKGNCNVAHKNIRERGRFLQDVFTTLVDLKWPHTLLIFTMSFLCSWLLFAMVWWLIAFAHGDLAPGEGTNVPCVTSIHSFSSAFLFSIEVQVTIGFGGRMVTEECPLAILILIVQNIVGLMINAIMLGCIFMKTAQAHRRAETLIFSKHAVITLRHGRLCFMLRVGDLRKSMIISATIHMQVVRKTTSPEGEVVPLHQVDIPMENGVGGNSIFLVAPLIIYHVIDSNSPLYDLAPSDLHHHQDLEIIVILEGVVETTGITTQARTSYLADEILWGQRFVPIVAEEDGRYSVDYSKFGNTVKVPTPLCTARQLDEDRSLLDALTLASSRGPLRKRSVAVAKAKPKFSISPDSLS
T8 sequence (Q09427 whole entry W51C): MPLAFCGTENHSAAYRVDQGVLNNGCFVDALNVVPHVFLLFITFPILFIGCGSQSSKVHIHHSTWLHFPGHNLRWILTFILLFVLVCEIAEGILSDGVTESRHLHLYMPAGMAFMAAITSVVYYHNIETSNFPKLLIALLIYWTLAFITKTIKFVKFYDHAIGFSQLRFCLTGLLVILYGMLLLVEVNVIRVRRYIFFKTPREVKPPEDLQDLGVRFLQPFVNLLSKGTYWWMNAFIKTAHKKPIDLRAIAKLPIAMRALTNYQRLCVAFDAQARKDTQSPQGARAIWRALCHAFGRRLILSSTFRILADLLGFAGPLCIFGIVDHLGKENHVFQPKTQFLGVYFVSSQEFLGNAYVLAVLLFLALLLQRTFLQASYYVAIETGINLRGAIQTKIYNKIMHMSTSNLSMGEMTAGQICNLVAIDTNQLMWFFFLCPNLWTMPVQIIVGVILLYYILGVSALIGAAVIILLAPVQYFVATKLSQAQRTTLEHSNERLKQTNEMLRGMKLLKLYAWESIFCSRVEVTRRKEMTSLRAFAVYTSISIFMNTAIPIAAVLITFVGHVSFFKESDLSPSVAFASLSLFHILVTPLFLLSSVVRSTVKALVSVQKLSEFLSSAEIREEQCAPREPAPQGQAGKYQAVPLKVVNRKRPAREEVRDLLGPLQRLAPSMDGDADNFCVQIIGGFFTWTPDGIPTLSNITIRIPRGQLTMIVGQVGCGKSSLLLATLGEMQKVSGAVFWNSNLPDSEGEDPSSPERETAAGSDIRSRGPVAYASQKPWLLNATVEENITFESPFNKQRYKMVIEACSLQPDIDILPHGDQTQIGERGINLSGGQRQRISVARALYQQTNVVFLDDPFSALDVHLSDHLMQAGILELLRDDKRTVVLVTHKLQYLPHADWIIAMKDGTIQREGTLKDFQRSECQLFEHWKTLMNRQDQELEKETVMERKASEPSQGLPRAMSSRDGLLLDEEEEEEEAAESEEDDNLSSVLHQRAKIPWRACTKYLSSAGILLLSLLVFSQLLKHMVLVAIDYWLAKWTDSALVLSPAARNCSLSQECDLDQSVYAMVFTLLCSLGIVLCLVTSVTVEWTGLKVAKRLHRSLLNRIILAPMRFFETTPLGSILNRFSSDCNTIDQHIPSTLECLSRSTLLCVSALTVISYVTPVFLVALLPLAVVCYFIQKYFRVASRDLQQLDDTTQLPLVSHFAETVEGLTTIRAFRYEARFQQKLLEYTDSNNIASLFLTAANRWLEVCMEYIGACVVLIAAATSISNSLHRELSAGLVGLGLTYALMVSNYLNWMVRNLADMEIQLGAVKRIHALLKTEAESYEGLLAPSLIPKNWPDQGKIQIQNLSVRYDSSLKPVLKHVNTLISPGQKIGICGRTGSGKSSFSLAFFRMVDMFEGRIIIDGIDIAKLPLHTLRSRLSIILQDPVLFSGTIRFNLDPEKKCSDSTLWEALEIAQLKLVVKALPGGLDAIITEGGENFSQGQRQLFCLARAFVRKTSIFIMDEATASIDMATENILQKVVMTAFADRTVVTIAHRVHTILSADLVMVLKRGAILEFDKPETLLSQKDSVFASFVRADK
T5 sequence (P70673 whole entry Q52R): as the sequence (P70673 whole entry Q52R) above
T5 sequence (Q09427 whole entry K134A): as the sequence (Q09427 whole entry W51C) above, with C51W, K134A counted along it
T1 sequence (P70673 whole entry Q52R): as the sequence (P70673 whole entry Q52R) above
T1 sequence (Q09427 whole entry): as the sequence (Q09427 whole entry W51C) above, with C51W counted along it
T4 sequence (Q09427 whole entry K134A): as the sequence (Q09427 whole entry W51C) above, with C51W, K134A counted along it
T4 sequence (P70673 whole entry): as the sequence (P70673 whole entry Q52R) above, with R52Q counted along it
T6 sequence (Q09427 whole entry K134A): as the sequence (Q09427 whole entry W51C) above, with C51W, K134A counted along it
T6 sequence (P70673 whole entry Q52R/R176A): as the sequence (P70673 whole entry Q52R) above, with R176A counted along it
T2 sequence (Q09427 whole entry): as the sequence (Q09427 whole entry W51C) above, with C51W counted along it
T2 sequence (P70673 whole entry Q52R/R176A): as the sequence (P70673 whole entry Q52R) above, with R176A counted along it
T3 sequence (Q09427 whole entry): as the sequence (Q09427 whole entry W51C) above, with C51W counted along it
T3 sequence (P70673 whole entry R176A): as the sequence (P70673 whole entry Q52R) above, with R52Q, R176A counted along it
T9 sequence (P70673 whole entry): as the sequence (P70673 whole entry Q52R) above, with R52Q counted along it
T9 sequence (Q09427 whole entry): as the sequence (Q09427 whole entry W51C) above, with C51W counted along it
T7 sequence (P70673 whole entry): as the sequence (P70673 whole entry Q52R) above, with R52Q counted along it
T7 sequence (Q09427 whole entry W51C): as the sequence (Q09427 whole entry W51C) above

## Nc1ncnc2c1ncn2[C@@H]1O[C@H](COP(=O)(O)OP(=O)(O)OP(=O)(O)O)[C@@H](O)[C@H]1O [ATP]
SUR1/Kir6.2^Q52R channel; ATP 10 μM
  % current: 94.34%
SUR1/Kir6.2^Q52R channel; ATP 100 μM
  % current: 77.97%
SUR1/Kir6.2^Q52R channel; ATP 200 μM
  % current: 34.77%
SUR1/Kir6.2^Q52R channel; ATP 1 mM
  % current: 15.08%
SUR1/Kir6.2^Q52R channel; ATP 2 mM
  % current: 2.12%
SUR1/Kir6.2^Q52R channel; ATP 5 mM
  % current: 2.88%
SUR1/Kir6.2^Q52R channel; Hill fit, H allowed to vary
  Hill coefficient (H) of ATP inhibition: 2.34
SUR1/Kir6.2^Q52R channel; [9]
  IC50: 161 ± 16.2 µM
[1]; ATP 1 μM
  % current: 93.65%
[1]; ATP 10 μM
  % current: 70.34%
[1]; ATP 100 μM
  % current: 6.88%
[1]; ATP 200 μM
  % current: 3.51%
[1]; ATP 1 mM
  % current: 0.92%
[1]; ATP 2 mM
  % current: 0.12%
[1]; Hill fit, H allowed to vary
  Hill coefficient (H) of ATP inhibition: 1.41
[1]; [9]
  IC50: 18 ± 1.2 µM
[2]; ATP 1 μM
  % current: 83.45%
[2]; ATP 10 μM
  % current: 56.97%
[2]; ATP 100 μM
  % current: 7.94%
[2]; ATP 1 mM
  % current: 6.02%
[2]; ATP 2 mM
  % current: 1.48%
[2]; Hill fit, H allowed to vary
  Hill coefficient (H) of ATP inhibition: 0.84
[2]; [9]
  IC50: 11.3 ± 1.95 µM
[3]; ATP 1 μM
  % current: 90.28%
[3]; ATP 10 μM
  % current: 19.80%
[3]; ATP 100 μM
  % current: 5.33%
[3]; ATP 200 μM
  % current: 0.84%
[3]; ATP 1 mM
  % current: 0.93%
[3]; ATP 2 mM
  % current: 0.25%
[3]; Hill fit, H allowed to vary
  Hill coefficient (H) of ATP inhibition: 1.54
[3]; [9]
  IC50: 4.12 ± 0.3 µM
[4]; ATP 1 μM
  % current: 98.42%
[4]; ATP 10 μM
  % current: 90.13%
[4]; ATP 100 μM
  % current: 32.09%
[4]; ATP 200 μM
  % current: 5.40%
[4]; ATP 1 mM
  % current: 0.80%
[4]; ATP 5 mM
  % current: 0.06%
[4]; Hill fit, H allowed to vary
  Hill coefficient (H) of ATP inhibition: 1.55
[4]; [9]
  IC50: 54.1 ± 7.14 µM
[5]; ATP 1 μM, one cell
  % current: 40.58%
[5]; ATP 10 μM, mean
  % current: 44.57%
[5]; ATP 100 μM, mean
  % current: 4.58%
[5]; ATP 1 mM, mean
  % current: -0.08%
[5]; ATP 5 mM, mean
  % current: 0.00%
[5]; Hill fit, H allowed to vary
  Hill coefficient (H) of ATP inhibition: 1.18
[5]; [9]
  IC50: 8.3 ± 1.11 µM
SUR1^W51C/Kir6.2 channel; ATP 1 μM
  % current: 94.89%
SUR1^W51C/Kir6.2 channel; ATP 10 μM
  % current: 75.92%
SUR1^W51C/Kir6.2 channel; ATP 100 μM
  % current: 6.20%
SUR1^W51C/Kir6.2 channel; ATP 200 μM
  % current: 6.36%
SUR1^W51C/Kir6.2 channel; ATP 1 mM
  % current: 1.93%
SUR1^W51C/Kir6.2 channel; ATP 2 mM
  % current: 3.08%
SUR1^W51C/Kir6.2 channel; ATP 5 mM
  % current: 0%
SUR1^W51C/Kir6.2 channel; [9]
  IC50: 20.9 ± 1.96 µM
[6]; ATP 1 μM
  % current: 97.59%
[6]; ATP 10 μM
  % current: 45.50%
[6]; ATP 100 μM
  % current: 6.41%
[6]; ATP 1 mM
  % current: 1.99%
[6]; ATP 2 mM
  % current: 0.62%
[6]; ATP 5 mM
  % current: 1.82%
[6]; [9]
  IC50: 8.98 ± 0.49 µM
[7]; ATP 1 μM
  % current: 84.78%
[7]; ATP 10 μM
  % current: 39.13%
[7]; ATP 100 μM
  % current: 7.09%
[7]; ATP 200 μM
  % current: 3.13%
[7]; ATP 1 mM
  % current: 4.17%
[7]; ATP 2 mM
  % current: 0.65%
[7]; ATP 5 mM
  % current: 2.98%
[7]; Hill fit, H allowed to vary
  Hill coefficient (H) of ATP inhibition: 0.93
[7]; [9]
  IC50: 6.25 ± 0.44 µM
Kir6.2^Q52R KATP channel
  decrease in channel sensitivity to ATP inhibition: 20 fold
[8]
  reduction of ATP inhibition IC50: 100 fold
